The target in test [1] is T1, DCAF1 WD40 domain (residues 1077-1390) (Homo sapiens, UniProt Q9Y4B6).
T1 construct: DCAF1 WD40 domain (residues 1077-1390)
The experiment in a line: DCAF1 binding assay by SPR (Biacore 8K+), DCAF1-3 KD. Particulars: 25 °C.

Test [2] has as its system BRD4 (N-terminally HiBiT-tagged, HEK293T cells). The experiment in a line: BRD4 degradation in HiBiT-BRD4-HEK293T cells. The test is classed as cell-based.

pKd: −log10 of the molar value. Where two headings read alike, the source gives them in different places.

T1 sequence (Q9Y4B6 1077-1390): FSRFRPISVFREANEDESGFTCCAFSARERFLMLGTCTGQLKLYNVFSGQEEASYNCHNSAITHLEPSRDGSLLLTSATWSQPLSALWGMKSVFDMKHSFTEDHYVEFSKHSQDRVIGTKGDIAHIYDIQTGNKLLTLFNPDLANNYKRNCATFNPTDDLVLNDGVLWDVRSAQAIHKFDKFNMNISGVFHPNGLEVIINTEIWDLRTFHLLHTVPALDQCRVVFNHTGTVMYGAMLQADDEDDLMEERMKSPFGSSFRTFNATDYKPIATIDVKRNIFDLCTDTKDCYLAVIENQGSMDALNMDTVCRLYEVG

`Cc1sc2c(c1C)C(c1ccc(Cl)cc1)=N[C@@H](CC(=O)NCCOCCOCCOCCOCCOCCCc1ccc(C(=O)c3[nH]cc(C(=O)N[C@@H](CC(N)=O)c4cccc(Cl)c4)c3-c3c(F)ccc(F)c3C)cc1)c1nnc(C)n1-2` [I-907]: the pKd in test [1] (read-out: DCAF1-3 SPR (KD)) is above 5.00. In test [2], the DC50 fell in the range of 0.01 to 0.1 µM and the Dmax entry is “B (70-90%)”.
For the molecule `Cc1sc2c(c1C)C(c1ccc(Cl)cc1)=N[C@@H](CC(=O)NCCOCCOCCOCCOCCCc1ccc(C(=O)c3[nH]cc(C(=O)N[C@@H](CC(N)=O)c4cccc(Cl)c4)c3-c3c(F)ccc(F)c3C)cc1)c1nnc(C)n1-2` [I-905, N—((S)-3-amino-1-(3-chlorophenyl)-3-oxopropyl)-5-(4-(1-((S)-4-(4-chlorophenyl)-2,3,9-trimethyl-6H-thieno[3,2-f][1,2,4]triazolo[4,3-a][1,4]diazepin-6-yl)-2-oxo-6,9,12,15-tetraoxa-3-azaoctadecan-18-yl)benzoyl)-4-(3,6-difluoro-2-methylphenyl)-1H-pyrrole-3-carboxamide], the pKd in test [1] (DCAF1-3 SPR (KD)) was above 5.00. In test [2], the DC50 was above 0.5 µM and the Dmax entry is reported as “B (70-90%)”.
Regarding `Cc1ccc(N2CCOCC2)cc1N[C@@H]1CCCN(c2cccc(F)c2)C1` [I-70], the pKd in test [1] (read-out: DCAF1-3 SPR (KD)) was below 3.70.
With `NC(=O)C[C@H](NC(=O)c1c[nH]nc1-c1ccccn1)c1cccc(Cl)c1` [I-202], the negative-log Kd (pKd) in test [1] (read-out: DCAF1-3 SPR (KD)) was below 3.70.
The same measure, in the same setting: to `Oc1ccc(N2CCOCC2)cc1N[C@@H]1CCCN(c2cccc(F)c2)C1` [I-325] belongs below 3.70.
On the same count and under the same terms, to `NCCc1ccc(N2CCC[C@@H](Nc3cc(N4CCOCC4)ccn3)C2)cc1` [I-871] belongs below 3.70.
The same measure, in the same setting: the result for `c1cc(N2CCOCC2)cc(N[C@@H]2CCCN(c3ccc4c(N5CCNCC5)ccnc4c3)C2)n1` [I-858] reads 4.00 to 5.00; that for `COCCC(=O)c1c(-c2c(F)ccc(F)c2C)c(C(=O)N[C@@H](CC(N)=O)c2cccc(Cl)c2)cn1C` [I-973], above 5.00.
For `C[C@H]1CC[C@H](O)CN1c1ccnc(N2CC[C@@H]3[C@H]2CCCN3c2cccc(F)c2)c1` [I-823], in test [1] (read-out: DCAF1-3 SPR (KD)), the pKd is above 5.00.
The same measure, in the same setting: to `COCCN1CCN(c2ccnc(N[C@@H]3CCCN(c4cccc(F)c4)C3)c2)CC1` [I-61] belongs 4.00 to 5.00.
`O=C(Nc1ccccc1)NC1CCCN(C(=O)N2CCC=C(F)C2)C1` (centres unmarked) [I-85]: the pKd in test [1] (read-out: DCAF1-3 SPR (KD)) was below 3.70.
Still for that read-out and setting: to `O=C1Cc2cnc(N3CCC[C@@H](Nc4cc(N5CCOCC5)ccn4)C3)cc2N1` [I-434] belongs below 3.70; to `Fc1cccc(N2CCC[C@@H](Nc3cc(N4CCOCC4)ccn3)C23COC3)c1` [I-280], below 3.70; to `C[C@H]1CCCCN1c1ccnc2c1CCN2C1CCCN(c2cccc(F)c2)C1` (some centres unmarked) [I-788], above 5.00.
In the case of `O[C@H]1CC[C@@H](Nc2cc(N3CCCCC3)ccn2)C[C@@H]1c1ccccc1` [I-984], in test [1] (read-out: DCAF1-3 SPR (KD)), the pKd was 4.00 to 5.00.
On the same count and under the same terms, the result for `O=S1(=O)[C@H](Nc2cc(N3CCOCC3)ccn2)CCCN1c1cccc(F)c1` [I-282] reads below 3.70.
Still for that read-out and setting: the result for `Fc1cccc(N2CCC[C@@H](n3ccc4c(N5CCOCC5)ncnc43)C2)c1` [I-59] reads 3.70 to 4.00; that for `Cc1cc(CCCOCCOCCOCCOCCOCCN)cc(F)c1-c1c(C(=O)N[C@@H](CC(N)=O)c2cccc(Cl)c2)c[nH]c1C#N` [I-918], above 5.00; that for `Cn1ncc(C(=O)N[C@@H](CC(N)=O)c2cccc(Cl)c2)c1-c1ccccc1F` [I-172], below 3.70.
Same read-out and setting: to `CC1(Nc2cc(N3CCOCC3)ccn2)CCCN(c2cccc(F)c2)C1` (centres unmarked) [I-222] belongs below 3.70; to `CO[C@@H]1C[C@@H](Nc2cc(N3CCOCC3)ncn2)CN(c2cccc(F)c2)C1` [I-164], below 3.70.
Regarding `NC(=O)N1Cc2ccc(N3CCC[C@@H]4[C@H]3CCN4c3cc(N4CCCCC4)ccn3)cc2C1` [I-957], the pKd in test [1] (read-out: DCAF1-3 SPR (KD)) was 4.00 to 5.00.
Consider `c1ccc(Cn2ccc3c(N4CCC[C@@H](Nc5cc(N6CCOCC6)ccn5)C4)ncnc32)cc1` [I-680], for which, in test [1] (read-out: DCAF1-3 SPR (KD)), the pKd is 3.70 to 4.00.
The same measure, in the same setting: the result for `COCCOCCC1CN(c2cc(N3CCOCC3)ccn2)[C@H]2CCCN(c3cccc(F)c3)[C@@H]12` (some centres unmarked) [I-827] reads above 5.00; that for `COCCOCC[C@H]1CN(c2cc(N3CCCCC3)ccn2)[C@@H]2CCCN(c3cccc(F)c3)[C@H]12` [I-931], above 5.00; that for `Cc1c(F)ccc(F)c1-c1c(C(=O)N[C@@H](CC(N)=O)c2cccc(Cl)c2)c[nH]c1/C(=N/OC(C)C)c1ccccc1` [I-759], above 5.00.
Still for that read-out and setting: to `c1cn(Cc2ccc(N3CCC[C@@H](Nc4cc(N5CCOCC5)ccn4)C3)cc2)cn1` [I-692] belongs 3.70 to 4.00.
Still for that read-out and setting: to `Cc1c(F)ccc(F)c1-c1[nH]ncc1C(=O)N[C@H](CC(N)=O)c1ccc(F)c(Cl)c1` [I-818] belongs above 5.00; to `C[C@@]1(Nc2cc(N3CCOCC3)ncn2)CCCN(c2cccc(F)c2)C1` [I-176], below 3.70.
For `NC(=O)C[C@@H](NC(=O)c1cn[nH]c1-c1ncccc1F)c1cccc(Cl)c1` [I-529], the pKd in test [1] (read-out: DCAF1-3 SPR (KD)) was 4.00 to 5.00.
Same read-out and setting: the result for `c1cc(N2CCOCC2)cc(N[C@@H]2CCCN(c3ccc(OCCN4CCCC4)nc3)C2)n1` [I-677] reads 4.00 to 5.00; that for `C=CC(=O)NC1CCN(c2ccnc(N[C@@H]3CCCN(c4cccc(F)c4)C3)c2)CC1` [I-451], below 3.70; that for `C[C@@H]1[C@H](O)CCCN1c1ccnc(N2CC[C@@H]3[C@H]2CCCN3c2cccc(F)c2)c1` [I-832], above 5.00.
On the same count and under the same terms, to `NC(=O)C[C@H](NC(=O)c1n[nH]c2c1NCCC2)c1cccc(Cl)c1` [I-299] belongs below 3.70; to `Fc1cccc(N2CCC[C@@H](N(c3ccncc3)c3cc(N4CCOCC4)ccn3)C2)c1` [I-307], below 3.70; to `COCCN(c1nccc(N2CCOCC2)n1)[C@@H]1CCCN(c2cccc(F)c2)C1` [I-40], 3.70 to 4.00.
`NCC1CC[C@@H](Nc2cc(N3CCCCC3)ccn2)CN1c1cccc(F)c1` (some centres unmarked) [I-1019]: in test [1] (read-out: DCAF1-3 SPR (KD)), the pKd is 4.00 to 5.00.
Still for that read-out and setting: the result for `C[C@H]1CC[C@H](c2[nH]ncc2C(=O)N[C@@H](CC(N)=O)c2cccc(Cl)c2)CC1` [I-741] reads above 5.00.
Consider `Fc1cccc(N2C[C@H](Nc3cc(N4CCOCC4)ncn3)C3CCC[C@H]2C3)c1` (stereo in doubt) [I-384], for which, in test [1] (read-out: DCAF1-3 SPR (KD)), the pKd is below 3.70.
Consider `NC(=O)C[C@H](NC(=O)c1cn[nH]c1-c1cccc(F)c1)c1cccc(Cl)c1` [I-115], for which, in test [1] (read-out: DCAF1-3 SPR (KD)), the pKd is above 5.00.
Same read-out and setting: the result for `NC(=O)C[C@H](NC(=O)CCc1nc2c(F)cccc2[nH]1)c1cccc(Cl)c1` [I-441] reads below 3.70; that for `NC(=O)C[C@H](NC(=O)c1c[nH]nc1-c1cc(=O)[nH]cn1)c1cccc(Cl)c1` [I-238], below 3.70.
Same read-out and setting: the result for `NC(=O)CCc1ccc(F)c(-c2[nH]ncc2C(=O)N[C@@H](CC(N)=O)c2cccc(Cl)c2)c1` [I-522] reads 4.00 to 5.00; that for `Cc1cccc(F)c1-c1c(C(=O)N[C@@H](CC(N)=O)c2cccc(Cl)c2)c[nH]c1C(=O)c1ccccn1` [I-699], above 5.00; that for `CC(=O)N(c1cc(N2CCOCC2)ccn1)[C@@H]1CCCN(c2cccc(F)c2)C1` [I-271], below 3.70.
On the same count and under the same terms, to `OCCN(c1nc(N2CCOCC2)c[nH]1)[C@H]1CCCN(c2cccc(F)c2)C1` [I-372] belongs below 3.70.
Take `Fc1cccc(N2CCC[C@H](N3CCc4c(N5CC6CC(C6)C5)ccnc43)C2)c1` [I-840]: the pKd in test [1] (read-out: DCAF1-3 SPR (KD)) was below 3.70.
Still for that read-out and setting: to `NC(=O)C[C@H](NC(=O)C1=C(c2c(F)cccc2F)CN(Cc2ccccc2)C1)c1cccc(Cl)c1` [I-587] belongs 4.00 to 5.00.
Same read-out and setting: the result for `Cc1c(F)ccc(F)c1-c1c(C(=O)NC(CC(N)=O)c2cccc(Cl)c2)cn(C)c1C(=O)COCCOCCOCCOCCOCCN` (centres unmarked) [I-844] reads above 5.00; that for `OCCOCCOCCOCCOCCC1CCCCN1c1ccnc(N2CC[C@@H]3[C@H]2CCCN3c2cccc(F)c2)c1` (some centres unmarked) [I-971], above 5.00.
Still for that read-out and setting: to `Fc1cccc(N2CCC[C@]3(Cc4cnc(N5CCOCC5)cc4N3)C2)c1` [I-213] belongs below 3.70; to `CS(=O)(=O)CCC(=O)N1CCC[C@@H](Nc2cc(N3CCOCC3)ccn2)C1` [I-767], below 3.70.
With `Cc1cccc(F)c1-c1c(C(=O)N[C@@H](CC(N)=O)c2cccc(Cl)c2)c[nH]c1Nc1cc(N2CCCCC2)ccn1` [I-744], the pKd in test [1] (read-out: DCAF1-3 SPR (KD)) is above 5.00.
Same read-out and setting: the result for `NC(=O)CC1(NC(=O)c2cn[nH]c2-c2ccccc2F)CCCc2c(Cl)cccc21` (centres unmarked) [I-562] reads below 3.70.
The same measure, in the same setting: to `COc1ncc(N[C@@H]2CCCN(c3cccc(F)c3)C2)cc1N1CCOCC1` [I-558] belongs above 5.00; to `NC(=O)CCc1cc(N2CCC[C@H]3[C@@H]2CCN3c2cc(N3CCCCC3)ccn2)ccc1F` [I-874], above 5.00; to `NCCNCc1cc(N[C@@H]2CCCN(c3cccc(F)c3)C2)cc(N2CCCCC2)c1` [I-947], 3.70 to 4.00.
`NC[C@H]1C[C@@H](Nc2cc(N3CCCCC3)ccn2)CN(c2cccc(F)c2)C1` [I-1041]: the pKd in test [1] (read-out: DCAF1-3 SPR (KD)) is 4.00 to 5.00.
Still for that read-out and setting: the result for `c1ccc2c(N3CCC[C@@H](Nc4cc(N5CCOCC5)ccn4)C3)nsc2c1` [I-112] reads 4.00 to 5.00; that for `CCC1CCCN(c2ccnc(N[C@@H]3CCCN(c4cccc(F)c4)C3)c2)C1` (some centres unmarked) [I-572], 4.00 to 5.00; that for `CC(C)CNc1ccc(N2CCC[C@@H](Nc3cc(N4CCOCC4)ccn3)C2)cc1` [I-693], 4.00 to 5.00.
